Experimental data reported in patent publication US6399590B2, “Phosphoglycolipid and methods for its use” (Corixa Corporation, priority 1998, dated 2002).

Assays:
[1] = tested on: rabbit model of regional myocardial ischemia; test: Infarct size in rabbits, 30 min coronary occlusion and 3 h reperfusion; type: in vivo, New Zealand white rabbits
Description: Male New Zealand white rabbits weighing 2.5-3.5 kg were injected with vehicle or L34 24 h before the experiment. L34 was formulated in vehicle composed of 40% propylene glycol, 10% ethanol in water. For the experiment, animals were intramuscularly anesthetized with ketamine (35 mg/kg) and xylazine (5 mg/kg). Tracheotomy was performed and the animals intubated with a cuffed endotracheal tube (Portex, 4.0 mm internal diameter) and then mechanically ventilated with room air on a positive pressure respirator Q Industries, Mobile, Ala.). Ventilatory rate was 27-35 breaths per min, and tidal volume was approximately 10-17 ml. […] The EKG was recorded throughout the experiment via lead II of the standard elctrocardiogram. […]
At the end of each experiment, the ligature around the large marginal branch of the circumflex artery was retightened to reocclude the artery and approximately 4 ml of 10% Evans blue dye was injected into the jugular vein until the eyes turned blue. […] The area at risk was determined by negative staining and calculated as a percentage of the portion of left ventricle containing the risk area (AAR/LV %) and infarct size as a percentage of area at risk (IS/AAR %). […] Regions of infarcted tissue and the risk zone were determined by computer morphometry using Bioquant imaging software and the percentage of infarcted area and risk area calculated.

[2] = tested on: IL-8 secretion by THP-1 cells; test: IL-8 secretion in THP-1 cells (ELISA); type: cell-based, human; conditions: any concentration between 1 ng/ml and 10 μg/ml; supernatants at 4, 16 and 24 hours
Description: The human myelomonocytic cell line THP-1 is commonly used for the analysis of the proinflammatory status of various compounds. THP-1 cells (American Type Culture Collections Cat. No. 202-TIB) were grown in RPMI 1640, 10% heat inactivated fetal bovine serum (FBS) and […] β-mercaptoethanol to a cell density of between 4×10^5/ml and 7×10^5/ml. Cells were removed from culture and resuspended at 1×10^6 cells/ml in RPMI 1640 containing 5% fetal bovine serum. Resuspended cells were then pipetted into sterile, disposable polystyrene 150×25 mm petri dishes and treated with the natural maturational agent 1α, 25-dihyroxyvitamin D3 at 1×10^−7 M between 24 and 72 hours depending on the degree of maturation desired. These maturationally “pretreated” cells were then washed 3× in RPMI 1640 containing more than 2% but less than 10% fetal bovine serum. After the third wash cells were resuspended in RPMI 1640 containing 5% FBS plus 2% human AB sera (Irvine Scientific) at 5×10^5 cells/ml and transferred at 2 ml per well in a tissue culture grade, flat bottom polystyrene 24 well plate. […] Cytokine concentration in the THP-1 culture supernatants were quantified using standard human cytokine ELISA kits from R&D Laboratories. […]

rabbits (fever response) = test: Three rabbit USP pyrogen test; type: in vivo; set-up: key to Average Temperature Rise: body temperature rise in °F (decreases recorded as zero)
Description: The compound of the subject invention was evaluated for pyrogenicity using a standard three rabbit USP pyrogen test (NAMSA, Northwood Ohio) at dose levels between 10 and 1000 μg/kg. Three rabbits were intravenously administered the compound in 40% propylene glycol and 10% ethanol in water at varying doses diluted one to one in D5W prior to dosing. Each animal's body temperature was monitored over the course of 4 h. Pyrogenic doses and borderline pyrogenic doses were defined by established USP definitions. Any temperature decrease was recorded as a rise of zero. An individual rise in temperature of less than 0.5° F. was considered non-pyrogenic.

In the case of `CCCCCCCCCCCCCCCCCC(=O)O[C@H](CCCCCCCCCCC)CC(=O)N[C@H]1[C@H](OC[C@H]2OC(O)[C@H](NC(=O)C[C@@H](CCCCCCCCCCC)OC(=O)CCCCCCCCCCCCCCC)[C@@H](O)[C@@H]2O)O[C@H](CO)[C@@H](OP(=O)(O)O)[C@@H]1OC(=O)C[C@@H](CCCCCCCCCCC)OC(=O)CCCCCCCCCCCCC` (stereo partly drawn) [L34, 2-Deoxy-6-O-[2-deoxy-4-O-phosphono-3-O-[(R)-3-tetradecanoyloxytetradecanoyl]-2-[(R)-3-octadecanoyloxytetradecanoylamino]-β-D-glucopyranosyl]-2-[(R)-3-hexadecanoyloxytetradecanoylamino]-D-glucopyranose], the “reduction in infarct size (percentage of area at risk) compared to controls” value ([1]; 35 μg/kg given 24 h before ischemia, FIG. 1) is reported as “approximately 70%”, the “reduction in infarct size, dose response” value ([1]; doses of 10 to 35 μg/kg given 24 h before ischemia, FIG. 2) is reported as > 50% and the IL-8 secretion [2] is reported as “did not induce detectable”. The “Average Temperature Rise” value (rabbits (fever response); L34 dose 10 μg/kg i.v.) was 0.14, the “Average Temperature Rise” value (rabbits (fever response); L34 dose 20 μg/kg i.v.) was 0.17 and the “Average Temperature Rise” value (rabbits (fever response); L34 dose 30 μg/kg i.v.) was 0.17. For the same molecule, the “Average Temperature Rise” value (rabbits (fever response); L34 dose 40 μg/kg i.v.) was 0.00, the “Average Temperature Rise” value (rabbits (fever response); L34 dose 60 μg/kg i.v.) was 0.10 and the “Average Temperature Rise” value (rabbits (fever response); L34 dose 80 μg/kg i.v.) was 0.13. The “Average Temperature Rise” value (rabbits (fever response); L34 dose 120 μg/kg i.v.) was 0.23, the “Average Temperature Rise” value (rabbits (fever response); L34 dose 160 μg/kg i.v.) was 0.17 and the “Average Temperature Rise” value (rabbits (fever response); L34 dose 240 μg/kg i.v.) was 0.00. For the same molecule, the “Average Temperature Rise” value (rabbits (fever response); L34 dose 360 μg/kg i.v.) was 0.30, the “Average Temperature Rise” value (rabbits (fever response); L34 dose 480 μg/kg i.v.) was 0.06 and the “Average Temperature Rise” value (rabbits (fever response); L34 dose 500 μg/kg i.v.) was 0.12. For the same molecule, the “Average Temperature Rise” value (rabbits (fever response); L34 dose 1000 μg/kg i.v.) was 0.10 and the pyrogenicity (rabbits (fever response); i.v., dose levels between 10 and 1000 μg/kg) was “not pyrogenic at any of the doses tested”.
